Test system: enzyme prepared from pig adipose tissue (synthesis of triglycerides)
Assay: Inhibition of triglyceride synthesis by enzyme preparation from pig adipose tissue (14C-glycerol-3-phosphate incorporation)
Assay type: biochemical
Conditions: test compound 1000 micrograms per milliliter, 5% DMSO, 8 minutes at 37° C; compared to controls without test compound; average of two animals
Procedure: An enzyme was prepared by homogenizing one gram of slices from pig adipose tissue, each slice being approximately 0.3 mm thick, in onemilliliter portions of a liquid medium (Liquid A). The homogenate then was centrifuged (10.000 g×15 minutes), and the supernatant phase (the enzyme) was poured through cheesecloth to remove fat that had risen to the top of the centrifuge tubes.
Liquid A had the following composition (in water):
0.15 M potassium chloride, 1 mM ethylenediaminetetracetic acid, […] Hepes (N-2-hydroxyethylpiperazine-N'-2-ethanesulfonic acid), 1 mM DTT (dithiothreitol), pH=7.0.
A solution of the test compound (Liquid B) was prepared: 10 milligrams of test compound plus 0.5 milliliter dimethylsulfoxide (DMSO) plus 1.83 milliliters of glass-distilled water.
A premix (Liquid C) was freshly prepared before each test, from the following components: […]
0.25 milliliter of enzyme then was added. […] Ten milliliters of a 2:1 (v/v) mixture of toluene and Triton X-100 containing 0.27% New England Nuclear Omnifluor was added, and the radioactivity was determined in a liquid scintillation counter. […]
The percent inhibition by the test compound compared to the controls (no test compound) was determined.

Structure (SMILES) | Percent Inhibition
Cc1ccc(CC(C)NCCCC(c2ccccc2)c2ccccn2)cc1.O=C(O)/C=C\C(=O)O (centres unmarked) [Compound 1, N-(1-methyl-2-(4-methylphenyl)ethyl)-delta-phenyl-2-pyridinebutanamine, maleic acid salt] | 97
CC(C)(Cc1ccc(Cl)cc1)NCCCC(c1ccccc1)c1ccccn1.O=C(O)/C=C\C(=O)O (centres unmarked) [Compound 2, N-(2-(4-chlorophenyl)-1,1-dimethylethyl)-delta-phenyl-2-pyridinebutanamine, maleic acid salt] | 93

— patent US4285953A, “Inhibition of biosynthesis of triglycerides by certain N-β-phenethyl-N-pyridylalkylamines” (Shell Oil Company, priority 1980, dated 1981)
